Test results: patent US9011935B2, “Therapeutic composition and use” (priority 2006, dated 2015)

What was measured:
[1] = system: Methicillin Resistant Staphylococcus Aureus (MRSA); test: Agar plate exposed to gaseous NO in a closed box (Example 5); format: cell-based; conditions: overnight incubation in closed box with NO gas, FIG. 5
Protocol: A Methicillin Resistant Staphylococcus Aureus (MRSA) culture was produced in the same manner as for Examples 1 to 4. The agar plate was placed in a polystyrene box. Gaseous NO was produced by reacting 10 ml 1M ascorbic acid with 5 ml 1M NaNO2 and 5 ml 1M KNO2 in the box and the lid of the box replaced immediately, followed by overnight incubation of the culture.

[2] = system: Candida Albicans (CA); test: Agar plate antibacterial test (Example 2); conditions: liquid added to hollow circle of seeded agar plate, FIG. 2
Protocol: (§1) A 1M solution of potassium nitrite was prepared by diluting 8.51 g of KNO2 in 100 ml of distilled water. 17.612 g of ascorbic acid was diluted in 100 ml of distilled water to form a 1M solution. The three stock solutions were prepared a few minutes prior to the experiments.
(§2) A volume of NaNO2 and an equal volume of KNO2 were mixed with twice the volume of ascorbic acid in a sterile container to produce an “oxides of nitrogen” containing solution. A reaction between the nitrites and the acid occurred instantly. The gas produced was released and 2 ml of the premixed liquid (0.25M) was added to 20 ml of distilled water to give a final concentration of the solution of 1.25 mM.
(§3) Separate samples of NaNO2, KNO2 and ascorbic acid were also prepared as described above.
(§4) An overnight culture of bacteria was prepared by inoculating 20 ml of LB (Luria-Bertani 10 g Bacto-tryptone, +5 g Bacto-yeast extract, +10 g sodium chloride per liter, at pH 7.5) broth with 2 to 3 colonies, and incubating at 37° C. overnight. Broth cultures containing approximately 109 organisms were produced. Bacteria were diluted 1:1000 using phosphate buffer saline (PBS) and 100 μl of diluted broth cultures were seeded on the Brain-Heart agar plates. Prior to seeding bacteria on to the surface of the agar plates a piece of agar (approximately 70 mm in diameter) from the centre of the plates was removed. […]

[3] = system: Methicillin Resistant Staphylococcus Aureus (MRSA); test: Agar plate antibacterial test (Example 1); conditions: liquid added to hollow circle of seeded agar plate, FIG. 1
Protocol: as §1, §2, §3, §4

[4] = system: Coagulase negative Staphylococcus (CNS); test: Agar plate antibacterial test (Example 4); conditions: liquid added to hollow circle of seeded agar plate, FIG. 4
Protocol: as §1, §2, §3, §4

[5] = system: Pseudomonas Aeruginosa (PS); test: Agar plate antibacterial test (Example 3); conditions: liquid added to hollow circle of seeded agar plate, FIG. 3
Protocol: as §1, §2, §3, §4

[6] = pH change on addition of L-ascorbic acid to sodium nitrite (Examples 16 and 17); format: physicochemical; conditions: 1M sodium nitrite in normal saline, before acid addition
Protocol: The pH change was measured when L-ascorbic acid was added to sodium nitrite incrementally and as a single addition.
Analytical grade (>99% purity) sodium nitrite (NaNO2) and L-ascorbic acid (C6H8O6) from Sigma-Aldrich, UK were used. Saline (0.9% wv of NaCl) was from Baxter Healthcare-UK was also used.
Normal saline was used as solvent in the preparation of the solutions of sodium nitrite and ascorbic acid. All solutions were prepared at room temperature (22-25° C.) in lots of 25 or 50 ml and were used within 10-20 days. Stock solutions were kept in airtight vessels away from light.
All pH measurements of the solutions were carried out with a Wissenschaftlich-Technische Werkstätten (WTW) pH meter, model pH340i along with a SenTix 20 pH combination electrode incorporating a thermocouple. The electrode was calibrated with freshly prepared buffer calibrating solutions (pH 7.00 and 4.00±0.002). Calibrating solutions were prepared from ALDRICH Tri-check buffer capsules, Aldrich, USA.
The pH of the solutions was measured with the addition of a standard magnetic stir bar operating at 60 rpm. At least 12 ml of solutions were used to ensure that the electrode was completely immersed. 1M solutions of sodium nitrite and ascorbic acid were prepared using normal saline as solvent. In Example 16, 1 ml of acid was added to the nitrite every 10 minutes. […]

With `[N]=O` [Gaseous NO, nitric oxide] the “visible bacterial cultures on agar plate” value [1] was “no remaining visible bacterial cultures”.

In the case of `O=C1O[C@H]([C@@H](O)CO)C(O)=C1O` [A, ascorbic acid], the “bacterial colonies on agar plate” value [2] is reported as “large amount of bacteria”, the “bacterial colonies on agar plate” value [3] is reported as “large amount of bacteria” and the “bacterial colonies on agar plate” value [4] is reported as “large amount of bacteria”. The “bacterial colonies on agar plate” value [5] was “large amount of bacteria”.

With `O=NO` [sodium nitrite solution, sodium nitrite] the “initial pH” value [6] was “approximately 7.35”.
